According to PMC10707992 (2023):

Tested on: FAM-Apt (DNA, aptamer) ATCACGTGTTGTCTCTCTGTGTCTCGTG
Assay: FRET strand-displacement assay (fluorescence recovery)
Conditions: 20 mM Mg-acetate, 100 mM Na-acetate; Tris-acetate pH 8.5, 25 °C; 3'-RTQ1 cDNA CAGAGAGAC not displaced; tested at 1 µM

## C[C@@H]1Cc2c(Cl)cc(C(=O)N[C@@H](Cc3ccccc3)C(=O)O)c(O)c2C(=O)O1
  binding: no

## C[C@H]1CCCC(=O)CCC/C=C/c2cc(O)cc(O)c2C(=O)O1
  binding: no
